Like-named read-outs stand apart in the source and are kept apart here.

Common to all, as to type: in vivo
Test [1] deals with rice (Oryra sativa). The test is described as follows: Test B flooded paddy test. The settings on record: Oryza sativa, 250 g ai/ha, Flood; 0 to 100 scale where 0 is no effect and 100 is complete control; read-out: Rice plant response rating. In a few lines:
(§1)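 Rating scale 0–100 (visual, vs untreated controls) after a 13–15 d greenhouse period; application to the flood layer, 3 cm above soil and maintained; plants at 2-leaf stage when treated.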

Test [2] deals with barnyardgrass (Echinochloa crus-galli). As to the kind of experiment: Test B flooded paddy test. The settings on record: Echinochloa crus-galli, 250 g ai/ha, Flood; 0 to 100 scale where 0 is no effect and 100 is complete control; read-out: Barnyardgrass plant response rating. The gist of the method: as §1
The test system of test [3] is sedge, umbrella (small-flower umbrella sedge, Cyperus difformis). The test is described as follows: Test B flooded paddy test. Particulars: Cyperus difformis, 250 g ai/ha, Flood. In a few lines:
as §1

Test [4] concerns ducksalad (Heteranthera limosa). As to the kind of experiment: Test B flooded paddy test. Particulars: Heteranthera limosa, 250 g ai/ha, Flood; 0 to 100 scale where 0 is no effect and 100 is complete control; read-out: Ducksalad plant response rating. The gist of the method: as §1
Test [5] concerns corn (Zea mays). As to the kind of experiment: Test A postemergence. Particulars: Zea mays, post-emergence, 240 h; for plant injury at 125 g/ha: 125 g ai/ha, read-out: Corn plant response rating (0 to 100 scale). In a few lines:
(§2)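 Visual injury, scored on a 0–100 scale relative to untreated controls, was recorded about 10 d after application. Treatments were a preemergence soil spray over planted seeds or a postemergence spray on plants at the one- to two-leaf stage, 2 to 10 cm tall, all in loam soil–sand blend in the greenhouse.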

Test [6] relates to Kochia (Kochia scoparia). The test is described as follows: Test A postemergence. Particulars: Bassia scoparia, post-emergence, 240 h; for pest or weed control at 125 g/ha: 125 g ai/ha, read-out: Kochia plant response rating (0 to 100 scale); for pest or weed control at 500 g/ha: 500 g ai/ha. The gist of the method:
as §2

The test system of test [7] is barnyardgrass (Echinochloa crus-galli). As to the kind of experiment: Test A postemergence. The settings on record: Echinochloa crus-galli, post-emergence, 240 h; for pest or weed control at 125 g/ha: 125 g ai/ha; for pest or weed control at 500 g/ha: 500 g ai/ha. The gist of the method:
as §2

The subject of test [8] is blackgrass (Alopecurus myosuroides). The test is described as follows: Test A postemergence. The settings on record: Alopecurus myosuroides, post-emergence, 240 h; for pest or weed control at 125 g/ha: 125 g ai/ha, read-out: Blackgrass plant response rating (0 to 100 scale); for pest or weed control at 500 g/ha: 500 g ai/ha. The gist of the method: as §2
Test [9] relates to giant foxtail (Setaria faberii). The test is described as follows: Test A postemergence. Particulars: Setaria faberi, post-emergence, 240 h; for pest or weed control at 125 g/ha: 125 g ai/ha, read-out: Foxtail, Giant plant response rating (0 to 100 scale); for pest or weed control at 500 g/ha: 500 g ai/ha. The gist of the method: as §2
In test [10] the test system is ragweed (common ragweed, Ambrosia elatior). The test is described as follows: Test A postemergence. Particulars: Ambrosia artemisiifolia, post-emergence, 240 h; for pest or weed control at 125 g/ha: 125 g ai/ha, read-out: Ragweed plant response rating (0 to 100 scale); for pest or weed control at 500 g/ha: 500 g ai/ha. In a few lines: as §2
Test [11] concerns pigweed (Amaranthus retroflexus). As to the kind of experiment: Test A postemergence. The settings on record: Amaranthus retroflexus, post-emergence, 240 h; for pest or weed control at 125 g/ha: 125 g ai/ha, read-out: Pigweed plant response rating (0 to 100 scale); for pest or weed control at 500 g/ha: 500 g ai/ha. In a few lines:
as §2

Test [12] relates to Galium (catchweed bedstraw, Galium aparine). As to the kind of experiment: Test A postemergence. Particulars: Galium, post-emergence, 240 h; for pest or weed control at 125 g/ha: 125 g ai/ha, read-out: Galium plant response rating (0 to 100 scale); for pest or weed control at 500 g/ha: 500 g ai/ha. In a few lines: as §2
Test [13] has as its system wheat (Triticum aestivum). The test is described as follows: Test A postemergence. Particulars: Triticum aestivum, post-emergence, 240 h; for plant injury at 125 g/ha: 125 g ai/ha, read-out: Wheat plant response rating (0 to 100 scale). The gist of the method:
as §2

Test [14] deals with ryegrass, Italian (Italian ryegrass, Lolium multiflorum). The test is described as follows: Test A postemergence. The settings on record: Lolium multiflorum, post-emergence, 240 h; for pest or weed control at 125 g/ha: 125 g ai/ha, read-out: Ryegrass, Italian plant response rating (0 to 100 scale); for pest or weed control at 500 g/ha: 500 g ai/ha. In a few lines:
as §2

The mark [15] stands for this setting: postemergence, visual injury vs untreated controls after approx. 10 d, 0 = no effect, 100 = complete control.
Where [16] appears, read: Postemergence, visual rating about 10 d after treatment.

As to `CSc1ccccc1NC(=O)[C@H]1C(=O)N(C)C[C@@H]1c1ccc(F)cc1` [Compound 1236], the pest or weed control at 250 g/ha in [1] was determined as 35%; in test [2], 65%; in test [3] (0 to 100 scale where 0 is no effect and 100 is complete control, read-out: Sedge, Umbrella plant response rating), 0%; in [4], 100%. In addition, the plant injury at 125 g/ha in test [5] (setting [15]) was 60%; in test [13] (setting [15]), 0%. The plant injury at 500 g/ha in test [5] (500 g ai/ha, postemergence, 0 to 100 scale, 0 is no effect, 100 is complete control, read-out: Corn plant response rating) amounted to 90%. The pest or weed control at 125 g/ha was found to be 20% in test [6] (setting [15]); 100% in test [7] (postemergence, visual injury vs untreated controls after approx. 10 d, 0 = no effect, 100 = complete control, read-out: Barnyardgrass plant response rating (0 to 100 scale)); 30% in test [8] (setting [15]); 30% in test [9] (setting [15]); 0% in test [10] (setting [15]); 20% in [11] (setting [15]). Besides, the values for the pest or weed control at 125 g/ha in [12] (setting [15]) and in test [14] (setting [15]) were 50% and 0%, respectively. The pest or weed control at 500 g/ha was found to be 30% in test [6] (postemergence, 0 to 100 scale, 0 is no effect, 100 is complete control, read-out: Kochia plant response rating); 100% in test [7] (postemergence, 0 to 100 scale, 0 is no effect, 100 is complete control, read-out: Barnyardgrass plant response rating); 30% in test [8] (postemergence, 0 to 100 scale, 0 is no effect, 100 is complete control, read-out: Blackgrass plant response rating); 90% in test [9] (postemergence, 0 to 100 scale, 0 is no effect, 100 is complete control, read-out: Foxtail, Giant plant response rating); 40% in test [10] (postemergence, 0 to 100 scale, 0 is no effect, 100 is complete control, read-out: Ragweed plant response rating); 40% in test [11] (postemergence, 0 to 100 scale, 0 is no effect, 100 is complete control, read-out: Pigweed plant response rating). Besides, the pest or weed control at 500 g/ha in [12] (postemergence, 0 to 100 scale, 0 is no effect, 100 is complete control, read-out: Galium plant response rating) is 60%; in [14] (postemergence, 0 to 100 scale, 0 is no effect, 100 is complete control, read-out: Ryegrass, Italian plant response rating), 50%.
Consider `CN1C[C@H](c2ccc3c(c2)CCO3)[C@@H](C(=O)Nc2cccc(F)c2F)C1=O` [Compound 1324], for which the pest or weed control at 250 g/ha was determined as 0% in test [1]; 75% in test [2]; 0% in test [3] (360 h, visually evaluated after 13 to 15 d, read-out: Plant response rating, Sedge, Umbrella (0 to 100 scale where 0 is no effect and 100 is complete control)); 65% in test [4]. For the same compound, the results for the plant injury at 125 g/ha in [5] (setting [16]) and in [13] (setting [16]) were 60% and 30%, respectively. Besides, the Corn plant response rating (crop injury, 0 = no effect, 100 = complete kill) at 500 g/ha in test [5] (Postemergence, 500 g ai/ha, visual injury, 0 to 100 scale (0 no effect, 100 complete control), approx. 10 d) was 80%. Besides, the pest or weed control at 125 g/ha in test [6] (setting [16]) worked out at 30%; in test [7] (Postemergence, visual rating about 10 d after treatment, read-out: Barnyardgrass plant response rating (0 to 100 scale, 0 no effect, 100 complete control)), 90%; in test [8] (setting [16]) it was 40%; in test [9] (setting [16]), 90%; in test [10] (setting [16]), 20%; in [11] (setting [16]), 0%. Moreover, the pest or weed control at 125 g/ha in [12] (setting [16]) and in [14] (setting [16]) was 30% in each case. In addition, the pest or weed control at 500 g/ha in test [6] (Postemergence, visual injury, 0 to 100 scale (0 no effect, 100 complete control), approx. 10 d, read-out: Plant response rating, Kochia) was 70%; in [7] (Postemergence, visual injury, 0 to 100 scale (0 no effect, 100 complete control), approx. 10 d, read-out: Plant response rating, Barnyardgrass), 90%; in test [8] (Postemergence, visual injury, 0 to 100 scale (0 no effect, 100 complete control), approx. 10 d, read-out: Plant response rating, Blackgrass) it was 60%; in test [9] (Postemergence, visual injury, 0 to 100 scale (0 no effect, 100 complete control), approx. 10 d, read-out: Plant response rating, Foxtail, Giant) it was 90%; in test [10] (Postemergence, visual injury, 0 to 100 scale (0 no effect, 100 complete control), approx. 10 d, read-out: Plant response rating, Ragweed), 40%; in test [11] (Postemergence, visual injury, 0 to 100 scale (0 no effect, 100 complete control), approx. 10 d, read-out: Plant response rating, Pigweed) it was 20%. Besides, the pest or weed control at 500 g/ha in test [12] (Postemergence, visual injury, 0 to 100 scale (0 no effect, 100 complete control), approx. 10 d, read-out: Plant response rating, Galium) stood at 50%; in test [14] (Postemergence, visual injury, 0 to 100 scale (0 no effect, 100 complete control), approx. 10 d, read-out: Plant response rating, Ryegrass, Italian), 50%. Moreover, the plant injury at 500 g/ha in [13] (Postemergence, 500 g ai/ha, visual injury, 0 to 100 scale (0 no effect, 100 complete control), approx. 10 d, read-out: Plant response rating, Wheat) stood at 70%.

(Values after patent US12077503B2, “Substituted cyclic amides and their use as herbicides” (FMC CORPORATION, priority 2015, dated 2024).)
